Experimental data from ChEMBL document CHEMBL1687771 (Antimicrob Agents Chemother, 2010).
≈ marks a conversion by molar mass, not a printed value. Calls of active or inactive are those of the source. No cut-off for these calls is given here.

How the values were obtained:
Bacillus anthracis [1] = experiment: Antimicrobial activity against Bacillus anthracis Ames by CLSI broth microdilution method; format: functional
Bacillus anthracis [2] = experiment: Antimicrobial activity against Bacillus anthracis Ames infected in BALB/c mouse anthrax spore inhalation infection model assessed as decrease in tissue bacterial burden at 50 mg/kg, sc bid for 14 days administered 24 hrs post bacterial challenge measured 43 days post bacterial challenge; format: functional, organism-based; set-up: dose 50 mg/kg
Bacillus anthracis [3] = experiment: Antimicrobial activity against Bacillus anthracis Ames infected in BALB/c mouse anthrax spore inhalation infection model assessed as decrease in tissue bacterial burden at 50 mg/kg, sc bid for 21 days administered 24 hrs post bacterial challenge measured 43 days post bacterial challenge; format: functional, organism-based; set-up: dose 50 mg/kg
Mus musculus [4] = experiment: AUC in Bacillus anthracis Ames infected in BALB/c mouse anthrax spore inhalation infection model at 50 mg/kg, sc bid for 14 days administered 24 hrs post bacterial challenge; format: functional, organism-based; set-up: dose 50 mg/kg
Mus musculus [5] = experiment: AUC at 24 hrs in Bacillus anthracis Ames infected in BALB/c mouse anthrax spore inhalation infection model at 50 mg/kg, sc bid for 14 days administered 24 hrs post bacterial challenge; format: functional, organism-based; set-up: dose 50 mg/kg

`CCCCCCCCCC(=O)N[C@@H](Cc1c[nH]c2ccccc12)C(=O)N[C@H](CC(N)=O)C(=O)N[C@@H](CC(=O)O)C(=O)N[C@@H]1C(=O)NCC(=O)N[C@@H](CCCN)C(=O)N[C@@H](CC(=O)O)C(=O)N[C@H](C)C(=O)N[C@@H](CC(=O)O)C(=O)NCC(=O)N[C@H](CO)C(=O)N[C@@H]([C@H](C)CC(=O)O)C(=O)N[C@@H](CC(=O)c2ccccc2N)C(=O)O[C@@H]1C` was tested, and the MIC50 (Bacillus anthracis [1]) was 2 µg/mL (≈ 1.23 µM), the MIC90 (Bacillus anthracis [1]) was 4 µg/mL (≈ 2.47 µM) and the Activity (Bacillus anthracis [2]) was “Active”. The Activity (Bacillus anthracis [3]) was “Active”, the AUC (Mus musculus [4]) was over 375000 ng·h/mL and the AUC (Mus musculus [5]) was 750000 ng·h/mL.
